Data: ChEMBL document CHEMBL5370608, “Selective and Bioavailable HDAC6 2-(Difluoromethyl)-1,3,4-oxadiazole Substrate Inhibitors and Modeling of Their Bioactivation Mechanism” (J Med Chem, 2023)
≈ marks a conversion by molar mass, not a printed value. Calls of active or inactive are those of the source. The calls are words filed in the database; no cut-off is given here.

Tests used:
[1] = target: T1, Protein deacetylase HDAC6 (Homo sapiens, UniProt Q9UBN7); assay: Inhibition of HDAC6 in human BEAS-2B cells assessed as deacetylation of acetylated alpha-tubulin level incubated for 24 hrs by Western blot analysis; type: cell-based
T1 sequence (Q9UBN7 whole entry): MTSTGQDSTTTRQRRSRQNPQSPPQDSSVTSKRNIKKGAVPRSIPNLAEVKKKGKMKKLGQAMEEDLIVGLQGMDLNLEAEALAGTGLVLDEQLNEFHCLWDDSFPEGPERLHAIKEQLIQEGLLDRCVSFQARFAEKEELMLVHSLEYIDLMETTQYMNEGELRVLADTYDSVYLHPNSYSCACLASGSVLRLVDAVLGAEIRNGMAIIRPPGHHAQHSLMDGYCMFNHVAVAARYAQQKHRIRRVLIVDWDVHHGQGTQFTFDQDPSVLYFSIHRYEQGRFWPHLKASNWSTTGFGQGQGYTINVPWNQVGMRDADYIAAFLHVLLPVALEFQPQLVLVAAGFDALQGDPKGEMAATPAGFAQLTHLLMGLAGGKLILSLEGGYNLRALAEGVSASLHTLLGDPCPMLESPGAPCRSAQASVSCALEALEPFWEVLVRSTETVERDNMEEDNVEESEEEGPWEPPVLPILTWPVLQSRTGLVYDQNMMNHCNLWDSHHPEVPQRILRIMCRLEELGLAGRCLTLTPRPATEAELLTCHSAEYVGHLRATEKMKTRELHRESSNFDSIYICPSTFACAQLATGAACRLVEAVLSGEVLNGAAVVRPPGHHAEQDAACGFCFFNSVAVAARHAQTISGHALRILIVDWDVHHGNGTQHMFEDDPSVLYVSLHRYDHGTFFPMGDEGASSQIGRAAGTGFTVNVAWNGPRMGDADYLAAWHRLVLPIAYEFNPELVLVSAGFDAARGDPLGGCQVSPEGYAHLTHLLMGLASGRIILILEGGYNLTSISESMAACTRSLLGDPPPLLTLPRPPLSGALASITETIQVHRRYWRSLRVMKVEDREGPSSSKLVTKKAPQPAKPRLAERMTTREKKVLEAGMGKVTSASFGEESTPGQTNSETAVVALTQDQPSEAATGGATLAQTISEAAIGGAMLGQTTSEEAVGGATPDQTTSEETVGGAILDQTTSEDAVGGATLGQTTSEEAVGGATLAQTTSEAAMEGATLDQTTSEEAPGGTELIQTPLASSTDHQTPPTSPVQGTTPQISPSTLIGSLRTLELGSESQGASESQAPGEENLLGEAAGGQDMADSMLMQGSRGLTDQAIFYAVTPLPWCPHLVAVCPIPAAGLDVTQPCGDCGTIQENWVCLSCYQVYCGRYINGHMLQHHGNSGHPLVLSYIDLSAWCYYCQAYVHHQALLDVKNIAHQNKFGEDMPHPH

[2] = target: T1, Protein deacetylase HDAC6; assay: Inhibition of full length TEV-cleavable N-terminal His6-tagged human recombinant HDAC6 using Ac-RGK (Ac)-AMC as substrate preincubated for 20 hrs followed by substrate addition and measured after 3 hrs by microplate reader analysis
THP-1 [3] = assay: Cytotoxicity against human THP-1 cells assessed as reduction in cell viability measured upto 250 uM by alamar blue staining based assay; type: functional
[4] = Chemical stability of compound in sodium carbonate buffer at pH 10 assessed as half life by UPLC analysis; type: physicochemical
[5] = Chemical stability of compound in sodium phosphate buffer at pH 7.4 assessed as half life by UPLC analysis; type: physicochemical
THP-1 [6] = assay: Cytotoxicity against human THP-1 cells assessed as reduction in cell viability by alamar blue staining based assay; type: functional
[7] = target: T1, Protein deacetylase HDAC6; assay: Inhibition of HDAC6 in human BEAS-2B cells assessed as deacetylation of acetylated histone-3 level incubated for 24 hrs by Western blot analysis; type: cell-based
[8] = Metabolic stability in human liver microsomes assessed as disappearance of parent compound; type: ADME, Microsome; details: read-out: CLH
[9] = Chemical stability of compound in HCL solution at pH 1 assessed as half life by UPLC analysis; type: physicochemical
[10] = Aqueous solubility of the compound at pH 7.4; type: physicochemical
[11] = target: T1, Protein deacetylase HDAC6; assay: Stability of the compound assessed as full-length human HDAC6 mediated-drug degradation measured after 96 hrs by time-resolved mass spectrometry analysis; type: ADME
[12] = target: T2, Protein deacetylase HDAC6 (Homo sapiens) (UniProt Q9UBN7); assay: Inhibition of HDAC6 in human BEAS-2B cells assessed as deacetylation of acetylated alpha-tubulin level at 10 uM incubated for 24 hrs by Western blot analysis; type: cell-based
T2 sequence (whole entry): T1 sequence (Q9UBN7 whole entry)

Row | SMILES | EC50 [1] [nM] | IC50 [2] [nM] | Activity (THP-1 [3]) | half-life [4] [h] | half-life [5] [h] | IC50 (THP-1 [6]; read-out: pIC50 (converted)) [nM] | IC50 [7] [nM] | microsomal CLint [8] [µL/min/mg] | half-life [9] [h] | solubility [10] [µM] | IC50 (THP-1 [6]; read-out: IC50) [nM] | Stability [11] | inhibition [12] | IC50 [1] [nM]
1 | Fc1cc(-c2nnc(C(F)F)o2)cc(F)c1Cn1nnc(-c2ccccn2)n1 | 3160 | 6.31 | inactive | < 13.7 | 57.6 | > 251000 | > 10000 | < 3 | < 13.7 | 52 (≈ 20.3 µg/mL) |  |  |  | 
2 | O=C(NO)c1cc(F)c(Cn2nnc(-c3ccccn3)n2)c(F)c1 | 20 | < 0.316 |  | 504 | 1730 | 63100 | 5010 | < 3 | 624 | 710 (≈ 236 µg/mL) | 60000 | Stable |  | 
3 | FC(F)c1nnc(-c2ccc(Cn3nnc(-c4ccc(Cl)cc4)n3)nc2)o1 | 1260 | 2 |  |  |  |  | > 10000 | < 3 |  | 1.3 (≈ 0.507 µg/mL) |  |  |  | 
4 | FC(F)c1nnc(-c2ccc(Cn3nnc(-c4cccc(Cl)c4)n3)nc2)o1 | 631 | 1.58 |  |  |  |  | > 10000 | < 3 |  | 3.1 (≈ 1.21 µg/mL) |  |  |  | 
5 | COc1cccc(-c2nnn(Cc3ccc(-c4nnc(C(F)F)o4)cn3)n2)c1 | 316 | 2 |  |  |  |  | > 10000 | 18 |  | 2.9 (≈ 1.12 µg/mL) |  |  |  | 
6 | CNC(=O)c1csc(-c2nnn(Cc3ccc(-c4nnc(C(F)F)o4)cc3)n2)c1 | 501 | 1 | inactive |  |  | > 251000 | > 10000 | 7.5 |  | 2.3 (≈ 0.96 µg/mL) |  |  |  | 
7 | COc1cccc(CNC(=O)c2csc(-c3nnn(Cc4ccc(-c5nnc(C(F)(F)F)o5)cc4)n3)c2)c1 |  | 12.6 |  |  |  |  |  |  |  |  |  |  | inactive | 
8 | COc1cccc(CNC(=O)c2csc(-c3nnn(Cc4ccc(-c5nnc(C)o5)cc4)n3)c2)c1 |  | > 100000 |  |  |  |  |  |  |  |  |  |  |  | 
9 | FC(F)c1nnc(-c2ccc(Cn3nnc(-c4ccccn4)n3)cn2)o1 |  | > 10000 |  |  |  |  |  | < 3 |  | 120 (≈ 42.8 µg/mL) |  |  |  | 
10 | FC(F)c1nnc(-c2cnc(Cn3nnc(-c4ccccn4)n3)nc2)o1 | 1580 | 15.8 |  | < 13.7 | 26.4 |  | > 10000 | < 3 | 7.2 | 120 (≈ 42.9 µg/mL) |  | Unstable |  | 
11 | COc1cccc(CNC(=O)c2csc(-c3nnn(Cc4ccc(-c5nnc(C(F)F)o5)cc4)n3)c2)c1 |  | 1.58 |  |  |  |  |  | 160 |  | < 1.6 |  |  |  | 10
12 | FC(F)c1nnc(-c2ccc(Cn3nnc(-c4cccnc4)n3)nc2)o1 | 1000 | 1.26 |  |  |  |  | > 10000 | < 3 |  | 170 (≈ 60.6 µg/mL) |  |  |  | 
13 | FC(F)c1nnc(-c2cnc(NC3(c4ccccc4)CCC(F)(F)CC3)nc2)o1 | 631 | 3.98 |  |  |  | 158000 | > 10000 | 12 |  | 2.6 (≈ 1.06 µg/mL) | 130000 | Unstable |  | 
14 | COc1cccc(CNC(=O)c2csc(-c3nnn(Cc4ccc(C(=O)NO)cc4)n3)c2)c1 |  |  |  |  |  |  |  |  |  |  |  |  |  | 200
15 | FC(F)c1nnc(-c2ccc(Cn3nnnc3-c3ccccn3)cc2)o1 | > 10000 | 31.6 | inactive |  |  | > 251000 | > 10000 | 5.8 |  | 2.6 (≈ 0.924 µg/mL) |  |  |  | 
16 | FC(F)c1nnc(-c2ccc(Cn3nnc(-c4ccccc4)n3)nc2)o1 | 316 | 0.794 | inactive |  |  | > 251000 | > 10000 | < 3 |  | 2.9 (≈ 1.03 µg/mL) |  |  |  | 
17 | FC(F)c1nnc(-c2ccc(Cn3nnc(-c4ccccn4)n3)cc2)o1 | 3160 | 2 | inactive | < 13.7 | 240 | > 251000 | > 10000 | < 3 | 7.44 | 14 (≈ 4.97 µg/mL) |  |  |  | 
18 | FC(F)c1nnc(-c2ccc(Cn3nnc(-c4ccccc4Cl)n3)nc2)o1 | 398 | 0.631 | inactive |  |  | > 251000 | > 10000 | < 3 |  | 5.8 (≈ 2.26 µg/mL) |  |  |  | 
